In patent publication US7417156B2, “Orally active, antimalarial, anticancer, artemisinin-derived trioxane dimers” (Johns Hopkins University, priority 2002, dated 2008):

Columns and labels:
HL-60(TB) = experiment: NCI 60 cell line panel screen (SRB); type: cell-based, human; settings: for Log10TGI50: TGI: PG=0
MOLT-4 = settings: for Log10GI50: Leukemia, MOLT-4; for Log10TGI50: TGI: PG=0
Method: Growth Inhibition. […] The screening assay is performed on 96-well microtitre plates. Relatively high initial inoculation densities are used, in order to permit measurement of “time-zero” values and to enhance the screen's ability to detect and provide some differentiation between growth inhibition and cytotoxic response parameters. […] The inoculated microtitre plates are pre-incubated for 24 hours at 37° C. prior to drug additions. The five drug dilutions tested routinely range from 10^−4 to 10^−8 molar. Higher or lower concentration ranges may be selected on a non-routine basis if appropriate solubility and/or prior biological information or other screening data so dictate. Duplicate wells are prepared for all concentrations, (concentration is often denoted by placing brackets around a number); “time-zero” and “no drug” controls are also provided for each test. The minimum amount of compound required for a one-time evaluation in the routine screen can be calculated from the knowledge that each test requires a total of approximately 40 ml (0.04 liter) of cell culture medium containing the highest desired drug concentration. […] After a 48 hour incubation (37° C.) with the test compound, the cells are fixed in situ to the bottoms of the microtitre wells by addition of 50 μl of either 50% trichloroacetic acid (for adherent cell lines) or 80% trichloroacetic acid (for settled cell suspension lines), followed by incubation for 60 minutes at 4° C. The cellular protein in each well is assayed using a sulforhodamine B (SRB) stain procedure. Briefly, after discarding the supernatants, the microtitre plates are washed 5 times with deionized water and air-dried. […] Unbound SRB is removed by washing 5 times with 1% acetic acid. […] SRB is a bright pink anionic dye which, in dilute acetic acid, binds electrostatically to the basic amino acids of TCA-fixed cells. Cryopreserved master stocks of all the lines are maintained, and cultures used for screening are replaced from the master stock after no more than twenty passages in the screening laboratory. The cell line panel consists of 60 lines, organized into nine, disease-related subpanels including leukemia, non-small-cell lung cancer, colon, CNS, melanoma, ovarian, renal, prostate and breast cancers.
At this value the increase from time tzero, in the number or mass of cells in the test well is only 50% as much as the corresponding increase in the control well during this period of the experiment, see Table III. A drug effect of this intensity is interpreted as primary growth inhibition.
At this value the number or mass of cells in the well at the end of the experiment equals the number or mass of cells in the well at time tzero, see Table IV. A drug effect of this intensity is regarded as cytostasis.
At this value, the number or mass of cells in the test well at the end of the experiment is half that at time tzero, see Table V. This is interpreted as cytotoxicity.
Dose response curves, shown in the above mentioned Figures, are obtained by exposing various cancer cell lines to compounds having a known concentration ([log10M]), as discussed in detail above, and then plotting the percentage growth of each cell line for each concentration. […] Percentage growth is determined by dividing the number or mass of cells in the test well by the number or mass of cells in a control well. […] As discussed previously, the five drug dilutions routinely tested range from 10^−4 to […].

HOP-92 = experiment: NCI 60 cell line panel screen (SRB); type: cell-based, human; settings: for Log10TGI50: TGI: PG=0; for Log10GI50: Non-Small Cell Lung Cancer, HOP-92
NCI-H23 = experiment: NCI 60 cell line panel screen (SRB); type: cell-based, human; settings: for Log10TGI50: TGI: PG=0
SNB-19 = experiment: NCI 60 cell line panel screen (SRB); type: cell-based, human
U251 = experiment: NCI 60 cell line panel screen (SRB); type: cell-based, human
SK-MEL-2 = experiment: NCI 60 cell line panel screen (SRB); type: cell-based, human; settings: for Log10TGI50: SK-MEL-2 (Melanoma), TGI: PG=0
IGROVI = experiment: NCI 60 cell line panel screen (SRB); type: cell-based, human; settings: for Log10TGI50: TGI: PG=0; for Log10GI50: Ovarian Cancer, IGROVI
OVCAR-5 = experiment: NCI 60 cell line panel screen (SRB); type: cell-based, human; settings: for Log10TGI50: TGI: PG=0
RXF 393 = experiment: NCI 60 cell line panel screen (SRB); type: cell-based, human; settings: for Log10TGI50: TGI: PG=0
TK-10 = experiment: NCI 60 cell line panel screen (SRB); type: cell-based, human; settings: for Log10GI50: Renal Cancer, TK-10; for Log10TGI50: TGI: PG=0
UO-31 = experiment: NCI 60 cell line panel screen (SRB); type: cell-based, human; settings: for Log10GI50: Renal Cancer, UO-31; for Log10TGI50: TGI: PG=0
PC-3 = experiment: NCI 60 cell line panel screen (SRB); type: cell-based, human; settings: for Log10TGI50: TGI: PG=0
BT-549 = experiment: NCI 60 cell line panel screen (SRB); type: cell-based, human; settings: for Log10TGI50: TGI: PG=0
CCRF-CEM = experiment: NCI 60 cell line panel screen (SRB); type: cell-based, human; settings: CCRF-CEM (Leukemia); TGI: PG=0
NCI-H322M = type: cell-based
[1] = HOP-92 (Non-Small Cell Lung Cancer)
[2] = NCI-H23 (Non-Small Cell Lung Cancer)

C[C@@H]1CC[C@H]2[C@@H](C)C(=O)O[C@@H]3O[C@]4(C)CC[C@@H]1[C@]32OO4 [Artemisinin]
Log10LC50 (HL-60(TB); HL-60(TB) (Leukemia), LC50: PG=−50): >−4.00 log10M
Log10TGI50 (HL-60(TB); HL-60(TB) (Leukemia)): >−4.00 log10M
Log10GI50 (HL-60(TB); Leukemia, HL-60(TB)): −4.26
Log10GI50 (MOLT-4): −4.73
Log10LC50 (MOLT-4; MOLT-4 (Leukemia), LC50: PG=−50): >−4.00 log10M
Log10TGI50 (MOLT-4; MOLT-4 (Leukemia)): >−4.00 log10M
concentration for cytotoxicity (percentage growth −50) (MOLT-4; human, 48 h): greater than 10^−4 M
Log10LC50 (HOP-92; HOP-92 (Non-Small Cell Lung Cancer), LC50: PG=−50): >−4.00 log10M
Log10TGI50 (HOP-92; [1]): >−4.00 log10M
Log10GI50 (HOP-92): >−4.00
Log10LC50 (NCI-H23; NCI-H23 (Non-Small Cell Lung Cancer), LC50: PG=−50): >−4.00 log10M
Log10TGI50 (NCI-H23; [2]): >−4.00 log10M
Log10GI50 (NCI-H23; Non-Small Cell Lung Cancer, NCI-H23): >−4.00
Log10GI50 (SNB-19; CNS Cancer, SNB-19): >−4.00
Log10LC50 (SNB-19; SNB-19 (CNS Cancer), LC50: PG=−50): >−4.00 log10M
Log10TGI50 (SNB-19; SNB-19 (CNS Cancer), TGI: PG=0): >−4.00 log10M
Log10GI50 (U251; CNS Cancer, U251): >−4.00
Log10LC50 (U251; U251 (CNS Cancer), LC50: PG=−50): >−4.00 log10M
Log10TGI50 (U251; U251 (CNS Cancer), TGI: PG=0): >−4.00 log10M
Log10LC50 (SK-MEL-2; SK-MEL2 (Melanoma), LC50: PG=−50): >−4.00 log10M
Log10TGI50 (SK-MEL-2): >−4.00 log10M
Log10LC50 (IGROVI; IGROVI (Ovarian Cancer), LC50: PG=−50): >−4.00 log10M
Log10TGI50 (IGROVI; IGROVI (Ovarian Cancer)): >−4.00 log10M
Log10GI50 (IGROVI): −4.31
Log10LC50 (OVCAR-5; OVCAR-5 (Ovarian Cancer), LC50: PG=−50): >−4.00 log10M
Log10TGI50 (OVCAR-5; OVCAR-5 (Ovarian Cancer)): >−4.00 log10M
Log10GI50 (OVCAR-5; Ovarian Cancer, OVCAR-5): >−4.00
Log10LC50 (RXF 393; RXF 393 (Renal Cancer), LC50: PG=−50): >−4.00 log10M
Log10TGI50 (RXF 393; RXF 393 (Renal Cancer)): >−4.00 log10M
Log10GI50 (RXF 393; Renal Cancer, RXF 393): −4.08
Log10GI50 (TK-10): >−4.00
Log10LC50 (TK-10; TK-10 (Renal Cancer), LC50: PG=−50): >−4.00 log10M
Log10TGI50 (TK-10; TK-10 (Renal Cancer)): >−4.00 log10M
Log10GI50 (UO-31): −4.06
Log10LC50 (UO-31; UO-31 (Renal Cancer), LC50: PG=−50): >−4.00 log10M
Log10TGI50 (UO-31; UO-31 (Renal Cancer)): >−4.00 log10M
Log10LC50 (PC-3; PC-3 (Prostate Cancer), LC50: PG=−50): >−4.00 log10M
Log10TGI50 (PC-3; PC-3 (Prostate Cancer)): −4.00 log10M
Log10GI50 (PC-3; Prostate Cancer, PC-3): −4.17
Log10LC50 (BT-549; BT-549 (Breast Cancer), LC50: PG=−50): >−4.00 log10M
Log10TGI50 (BT-549; BT-549 (Breast Cancer)): >−4.00 log10M
Log10GI50 (BT-549; Breast Cancer, BT-549): −4.06

CC1CCC2C(C)C(CC(COCC(=O)O)CC3OC4OC5(C)CCC6C(C)CCC(C3C)C46OO5)OC3OC4(C)CCC1C32OO4 (stereo not drawn) [Compound 12b, bis-trioxane O-acetic acid]
Log10TGI50 (CCRF-CEM): >−4.30 log10M
Log10TGI50 (HL-60(TB); HL-60(TB) (Leukemia)): <−8.30 log10M
Log10GI50 (MOLT-4): −7.66
Log10TGI50 (MOLT-4; MOLT-4 (Leukemia)): >−4.30 log10M
Log10TGI50 (HOP-92; [1]): >−4.30 log10M
Log10GI50 (HOP-92): −7.00
Log10TGI50 (NCI-H23; [2]): >−4.30 log10M
Log10TGI50 (NCI-H322M; NCI-H322M (Non-Small Cell Lung Cancer), TGI: PG=0): >−4.30 log10M
Log10GI50 (NCI-H322M; Non-Small Cell Lung Cancer, NCI-H322M): −5.03
Log10GI50 (SK-MEL-2; Melanoma, SK-MEL-2): −5.62
Log10TGI50 (SK-MEL-2): >−4.30 log10M
Log10TGI50 (IGROVI; IGROVI (Ovarian Cancer)): >−4.30 log10M
Log10GI50 (IGROVI): −5.06
Log10TGI50 (OVCAR-5; OVCAR-5 (Ovarian Cancer)): −6.39 log10M
Log10TGI50 (RXF 393; RXF 393 (Renal Cancer)): <−8.30 log10M
Log10GI50 (TK-10): −7.22
Log10TGI50 (TK-10; TK-10 (Renal Cancer)): −5.22 log10M
Log10GI50 (UO-31): −5.84
Log10TGI50 (UO-31; UO-31 (Renal Cancer)): >−4.30 log10M
Log10TGI50 (PC-3; PC-3 (Prostate Cancer)): −4.92 log10M
Log10TGI50 (BT-549; BT-549 (Breast Cancer)): >−4.30 log10M
